Key:
Test in all cases: relative viability (nuclei count vs DMSO), 5 days (fraction); higher = more cells survive
[1] = tested on: LK-2
Method in brief: (§1)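 One day after seeding in 1536-well plates, lung cancer cell lines were dosed by pin tool. Dosing was either single-drug or a fixed anchor-drug dose plus five library-drug doses (not always all listed) in √10 steps. After 5 days, nuclei were stained in one fix-and-stain step and counted on 4× images, and relative viability is the nuclei count of treated wells over that of vehicle wells, given as the median of duplicate plates.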

[2] = tested on: BEN
Method in brief: as §1

[3] = tested on: HCC-366
Method in brief: as §1

[4] = tested on: NCI-H1650
Method in brief: as §1

[5] = tested on: NCI-H2170
Method in brief: as §1

[6] = tested on: 201T
Method in brief: as §1

[7] = tested on: NCI-H2009
Method in brief: as §1

[8] = tested on: NCI-H838
Method in brief: as §1

[9] = tested on: EKVX
Method in brief: as §1

[10] = tested on: COR-L 105
Method in brief: as §1

[11] = tested on: SW 900
Method in brief: as §1

[12] = tested on: COR-L23
Method in brief: as §1

[13] = tested on: NCI-H1666
Method in brief: as §1

[14] = tested on: NCI-H2023
Method in brief: as §1

[15] = tested on: NCI-H727
Method in brief: as §1

[16] = tested on: NCI-H661
Method in brief: as §1

[17] = tested on: NCI-H441
Method in brief: as §1

[18] = tested on: LU99A
Method in brief: as §1

[19] = tested on: ABC-1
Method in brief: as §1

[20] = tested on: HARA
Method in brief: as §1

[21] = tested on: PC-14
Method in brief: as §1

[22] = tested on: NCI-H3122
Method in brief: as §1

[23] = tested on: NCI-H1437
Method in brief: as §1

## COc1cc(N2CCC(C(N)=O)CC2)ccc1Nc1nc(N)c(Cl)c(Nc2ccccc2S(=O)(=O)C(C)C)n1 [HG-5-88-01] + Nc1ncn([C@H]2C[C@H](O)[C@@H](CO)O2)c(=O)n1 [Decitabine] (partner 2 µM)
[1]; first compound 0.04 µM
  relative viability: 0.254
[1]; first compound 0.1265 µM
  relative viability: 0.327
[1]; first compound 0.4 µM
  relative viability: 0.386
[1]; first compound 4 µM
  relative viability: 0.236
[2]; first compound 0.04 µM
  relative viability: 0.532
[2]; first compound 0.1265 µM
  relative viability: 0.738
[2]; first compound 0.4 µM
  relative viability: 0.77
[2]; first compound 1.265 µM
  relative viability: 0.725
[2]; first compound 4 µM
  relative viability: 0.545
[3]; first compound 0.04 µM
  relative viability: 0.367
[3]; first compound 0.1265 µM
  relative viability: 0.357
[3]; first compound 0.4 µM
  relative viability: 0.436
[3]; first compound 1.265 µM
  relative viability: 0.338
[3]; first compound 4 µM
  relative viability: 0.343
[4]; first compound 0.04 µM
  relative viability: 0.378
[4]; first compound 0.1265 µM
  relative viability: 0.559
[4]; first compound 0.4 µM
  relative viability: 0.527
[4]; first compound 1.265 µM
  relative viability: 0.559
[4]; first compound 4 µM
  relative viability: 0.413
[5]; first compound 0.04 µM
  relative viability: 0.461
[5]; first compound 0.1265 µM
  relative viability: 0.479
[5]; first compound 0.4 µM
  relative viability: 0.509
[5]; first compound 1.265 µM
  relative viability: 0.439
[5]; first compound 4 µM
  relative viability: 0.486
[6]; first compound 0.04 µM
  relative viability: 0.856
[6]; first compound 0.1265 µM
  relative viability: 0.864
[6]; first compound 1.265 µM
  relative viability: 0.852
[6]; first compound 4 µM
  relative viability: 0.891
[7]; first compound 0.04 µM
  relative viability: 0.355
[7]; first compound 0.1265 µM
  relative viability: 0.384
[7]; first compound 0.4 µM
  relative viability: 0.338
[7]; first compound 1.265 µM
  relative viability: 0.314
[7]; first compound 4 µM
  relative viability: 0.377
[8]; first compound 0.04 µM
  relative viability: 0.46
[8]; first compound 0.1265 µM
  relative viability: 0.467
[8]; first compound 0.4 µM
  relative viability: 0.491
[8]; first compound 1.265 µM
  relative viability: 0.407
[8]; first compound 4 µM
  relative viability: 0.341
[9]; first compound 0.04 µM
  relative viability: 0.392
[9]; first compound 0.1265 µM
  relative viability: 0.332
[9]; first compound 0.4 µM
  relative viability: 0.389
[9]; first compound 4 µM
  relative viability: 0.345
[10]; first compound 0.04 µM
  relative viability: 0.569
[10]; first compound 0.1265 µM
  relative viability: 0.706
[10]; first compound 0.4 µM
  relative viability: 0.628
[10]; first compound 1.265 µM
  relative viability: 0.582
[10]; first compound 4 µM
  relative viability: 0.577
[11]; first compound 0.04 µM
  relative viability: 0.419
[11]; first compound 0.1265 µM
  relative viability: 0.441
[11]; first compound 0.4 µM
  relative viability: 0.528
[11]; first compound 1.265 µM
  relative viability: 0.492
[11]; first compound 4 µM
  relative viability: 0.436
[12]; first compound 0.04 µM
  relative viability: 0.405
[12]; first compound 0.1265 µM
  relative viability: 0.531
[12]; first compound 0.4 µM
  relative viability: 0.543
[12]; first compound 1.265 µM
  relative viability: 0.379
[12]; first compound 4 µM
  relative viability: 0.391
[13]; first compound 0.04 µM
  relative viability: 0.66
[13]; first compound 0.1265 µM
  relative viability: 0.743
[13]; first compound 0.4 µM
  relative viability: 0.779
[13]; first compound 1.265 µM
  relative viability: 0.622
[13]; first compound 4 µM
  relative viability: 0.566
[14]; first compound 0.04 µM
  relative viability: 0.223
[14]; first compound 0.1265 µM
  relative viability: 0.244
[14]; first compound 0.4 µM
  relative viability: 0.229
[14]; first compound 1.265 µM
  relative viability: 0.236
[14]; first compound 4 µM
  relative viability: 0.256
[15]; first compound 0.04 µM
  relative viability: 0.913
[15]; first compound 0.1265 µM
  relative viability: 0.789
[15]; first compound 0.4 µM
  relative viability: 0.837
[15]; first compound 4 µM
  relative viability: 0.672
[16]; first compound 0.04 µM
  relative viability: 0.54
[16]; first compound 0.1265 µM
  relative viability: 0.595
[16]; first compound 0.4 µM
  relative viability: 0.653
[16]; first compound 1.265 µM
  relative viability: 0.515
[16]; first compound 4 µM
  relative viability: 0.56
[17]; first compound 0.04 µM
  relative viability: 0.235
[17]; first compound 0.1265 µM
  relative viability: 0.28
[17]; first compound 0.4 µM
  relative viability: 0.272
[17]; first compound 1.265 µM
  relative viability: 0.231
[17]; first compound 4 µM
  relative viability: 0.271
[18]; first compound 0.04 µM
  relative viability: 0.896
[18]; first compound 0.1265 µM
  relative viability: 0.929
[18]; first compound 0.4 µM
  relative viability: 0.915
[18]; first compound 1.265 µM
  relative viability: 0.93
[18]; first compound 4 µM
  relative viability: 0.839
[19]; first compound 0.04 µM
  relative viability: 0.998
[19]; first compound 0.1265 µM
  relative viability: 1.09
[19]; first compound 0.4 µM
  relative viability: 1.1
[19]; first compound 1.265 µM
  relative viability: 0.884
[19]; first compound 4 µM
  relative viability: 0.946
[20]; first compound 0.04 µM
  relative viability: 0.581
[20]; first compound 0.1265 µM
  relative viability: 0.504
[20]; first compound 0.4 µM
  relative viability: 0.663
[20]; first compound 1.265 µM
  relative viability: 0.451
[20]; first compound 4 µM
  relative viability: 0.494
[21]; first compound 0.04 µM
  relative viability: 0.215
[21]; first compound 0.1265 µM
  relative viability: 0.231
[21]; first compound 0.4 µM
  relative viability: 0.235
[21]; first compound 1.265 µM
  relative viability: 0.206
[21]; first compound 4 µM
  relative viability: 0.0628
[22]; first compound 0.04 µM
  relative viability: 0.365
[22]; first compound 0.1265 µM
  relative viability: 0.279
[22]; first compound 0.4 µM
  relative viability: 0.223
[22]; first compound 1.265 µM
  relative viability: 0.127
[22]; first compound 4 µM
  relative viability: 0.0935
[23]; first compound 0.04 µM
  relative viability: 0.529
[23]; first compound 0.1265 µM
  relative viability: 0.565
[23]; first compound 0.4 µM
  relative viability: 0.465
[23]; first compound 1.265 µM
  relative viability: 0.579
[23]; first compound 4 µM
  relative viability: 0.821
